Measured values as given in patent publication US11034685B2, “Aminopyridine derivatives as TAM family kinase inhibitors” (SignalChem Lifesciences Corporation, priority 2013, dated 2021).

What was measured:
Assay type in all cases: biochemical
human Axl (473-end) = biological target: T1, human Axl (473-end) (Homo sapiens, UniProt P30530); experiment: Kinase enzymatic activity assay ([33P]-ATP phosphate transfer), Axl; details: inhibitory activity on Axl; class symbols
T1 construct: GST (N); made in house; host or cells: Sf9 insect cells (baculovirus)
T1 sequence (P30530 473-894 limits assumed): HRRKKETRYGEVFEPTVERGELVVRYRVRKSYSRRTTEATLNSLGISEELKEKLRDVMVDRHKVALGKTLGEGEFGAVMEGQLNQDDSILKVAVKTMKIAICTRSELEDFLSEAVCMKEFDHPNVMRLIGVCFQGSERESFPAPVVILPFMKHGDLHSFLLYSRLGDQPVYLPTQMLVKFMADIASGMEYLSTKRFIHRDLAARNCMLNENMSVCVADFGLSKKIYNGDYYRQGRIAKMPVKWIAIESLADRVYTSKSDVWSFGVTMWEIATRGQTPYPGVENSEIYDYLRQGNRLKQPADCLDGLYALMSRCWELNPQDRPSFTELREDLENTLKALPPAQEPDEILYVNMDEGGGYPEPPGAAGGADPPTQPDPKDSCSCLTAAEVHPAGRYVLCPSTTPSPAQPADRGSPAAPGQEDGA
Procedure, shortened: (§1)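 Kinases were N-terminal GST-tagged constructs expressed in Sf9 cells, with poly(Glu:Tyr 4:1) as substrate. Reactions ran in MOPS buffer pH 7.2 with MgCl2 and [33P]-ATP (250 μM cocktail stock) for 30 min at room temperature. Filter-bound radioactivity gave % inhibition, and IC50 was taken from serial dilutions.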

human Mer (578-872) = biological target: T2, human Mer (578-872) (Homo sapiens, UniProt Q12866); experiment: Kinase enzymatic activity assay ([33P]-ATP phosphate transfer), Mer; details: inhibitory activity on Mer; class symbols
T2 construct: GST (N); made in house; host or cells: Sf9 insect cells (baculovirus)
T2 sequence (Q12866 578-872): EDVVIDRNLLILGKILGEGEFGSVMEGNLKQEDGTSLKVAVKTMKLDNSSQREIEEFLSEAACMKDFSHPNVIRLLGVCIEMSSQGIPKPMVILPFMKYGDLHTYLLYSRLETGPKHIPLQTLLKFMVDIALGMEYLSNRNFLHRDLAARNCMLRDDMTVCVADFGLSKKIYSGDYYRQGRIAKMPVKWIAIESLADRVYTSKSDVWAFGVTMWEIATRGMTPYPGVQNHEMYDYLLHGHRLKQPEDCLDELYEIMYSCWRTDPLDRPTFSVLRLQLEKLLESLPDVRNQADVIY
Procedure, shortened: as §1

[1] = biological target: T3, Recombinant human Tyro3 (455-end) (Homo sapiens, UniProt Q06418); experiment: Kinase enzymatic activity assay ([33P]-ATP phosphate transfer), Tyro3; details: inhibitory activity on Tyro3; class symbols
T3 construct: GST (N); made in house; host or cells: Sf9 insect cells (baculovirus)
T3 sequence (Q06418 455-890 limits assumed): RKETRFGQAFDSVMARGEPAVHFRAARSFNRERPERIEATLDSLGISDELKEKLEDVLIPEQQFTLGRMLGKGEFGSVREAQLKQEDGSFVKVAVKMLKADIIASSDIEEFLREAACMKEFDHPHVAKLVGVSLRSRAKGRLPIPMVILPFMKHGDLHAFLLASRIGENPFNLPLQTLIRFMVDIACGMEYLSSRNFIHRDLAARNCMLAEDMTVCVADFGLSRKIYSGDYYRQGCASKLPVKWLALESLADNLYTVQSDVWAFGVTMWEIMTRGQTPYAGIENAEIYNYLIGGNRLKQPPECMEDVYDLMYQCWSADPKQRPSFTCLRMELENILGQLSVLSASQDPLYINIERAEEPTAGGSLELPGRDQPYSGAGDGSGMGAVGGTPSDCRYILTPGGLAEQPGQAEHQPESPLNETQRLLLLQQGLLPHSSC
Procedure, shortened: as §1

SMILES	IC50 (human Axl (473-end)) [nM]	IC50 (human Mer (578-872)) [nM]	IC50 [1] [nM]
Nc1ncc(-c2cnn(C3CCCCC3)c2)cc1-c1nnc(-c2c(Cl)cccc2Cl)o1 [5-(1-cyclohexyl-1H-pyrazol-4-yl)-3-(5-(2,6-dichlorophenyl)-1,3,4-oxadiazol-2-yl)pyridin-2-amine]	> 10000	> 10000	> 10000
Nc1ncc(-c2cnn(C3CCOCC3)c2)cc1-c1nc(-c2c(Cl)cccc2Cl)no1 [3-(3-(2,6-dichlorophenyl)-1,2,4-oxadiazol-5-yl)-5-(1-(tetrahydro-2H-pyran-4-yl)-1H-pyrazol-4-yl)pyridin-2-amine]	1000 to 10000	1000 to 10000	< 500
CC(C)(C)OC(=O)N1CCC(n2cc(-c3cnc(N)c(-c4nnc(-c5ccccc5)o4)c3)cn2)CC1 [tert-butyl 4-(4-(6-amino-5-(5-phenyl-1,3,4-oxadiazol-2-yl)pyridin-3-yl)-1H-pyrazol-1-yl)piperidine-1-carboxylate]	1000 to 10000	1000 to 10000	1000 to 10000
Nc1ncc(-c2cnn(C3CCCCC3)c2)cc1-c1nnc(-c2ccccc2)o1 [5-(1-cyclohexyl-1H-pyrazol-4-yl)-3-(5-phenyl-1,3,4-oxadiazol-2-yl)pyridin-2-amine]	1000 to 10000	> 10000	1000 to 10000
Nc1ncc(-c2cnn(C3CCCCC3)c2)cc1-c1noc(-c2ccccc2)n1 [5-(1-cyclohexyl-1H-pyrazol-4-yl)-3-(5-phenyl-1,2,4-oxadiazol-3-yl)pyridin-2-amine]	> 10000	> 10000	> 10000
CCCCCCCCCCCCN1CCC(n2cc(-c3cnc(N)c(-c4nnc(-c5c(Cl)cccc5Cl)o4)c3)cn2)CC1 [3-(5-(2,6-dichlorophenyl)-1,3,4-oxadiazol-2-yl)-5-(1-(1-dodecylpiperidin-4-yl)-1H-pyrazol-4-yl)pyridin-2-amine]	1000 to 10000	1000 to 10000	500 to 1000
CC(C)(C)OC(=O)N1CCC(n2cc(-c3cnc(N)c(-c4ncc(-c5ccc(Cl)cc5)o4)c3)cn2)CC1 [tert-butyl 4-(4-(6-amino-5-(5-(4-chlorophenyl)oxazol-2-yl)pyridin-3-yl)-1H-pyrazol-1-yl)piperidine-1-carboxylate]	500 to 1000	1000 to 10000	1000 to 10000
CC(C)(C)OC(=O)N1CCC(n2cc(-c3cnc(N)c(-c4nnc(-c5cccnc5)o4)c3)cn2)CC1 [tert-butyl 4-(4-(6-amino-5-(5-(pyridin-3-yl)-1,3,4-oxadiazol-2-yl)pyridin-3-yl)-1H-pyrazol-1-yl)piperidine-1-carboxylate]	500 to 1000	1000 to 10000	1000 to 10000
CN1CCC(n2cc(-c3cnc(N)c(-c4cc(-c5ccccc5)on4)c3)cn2)CC1 [5-(1-(1-methylpiperidin-4-yl)-1H-pyrazol-4-yl)-3-(5-phenylisoxazol-3-yl)pyridin-2-amine]	< 500	< 500	< 500
Nc1ncc(-c2cnn(C3CCNCC3)c2)cc1-c1noc(-c2cc(Cl)ccc2Cl)n1 [3-(5-(2,5-dichlorophenyl)-1,2,4-oxadiazol-3-yl)-5-(1-(piperidin-4-yl)-1H-pyrazol-4-yl)pyridin-2-amine]	< 500	500 to 1000	< 500
Nc1ncc(-c2cnn(C3CCNCC3)c2)cc1-c1ncc(-c2ccc(Cl)cc2)o1 [3-(5-(4-chlorophenyl)oxazol-2-yl)-5-(1-(piperidin-4-yl)-1H-pyrazol-4-yl)pyridin-2-amine]	< 500	< 500	< 500
Nc1ncc(-c2cnn(C3CCN(C(=O)Cc4ccccc4)CC3)c2)cc1-c1nnc(-c2c(Cl)cccc2Cl)o1 [1-(4-(4-(6-amino-5-(5-(2,6-dichlorophenyl)-1,3,4-oxadiazol-2-yl)pyridin-3-yl)-1H-pyrazol-1-yl)piperidin-1-yl)-2-phenylethanone]	1000 to 10000	1000 to 10000	1000 to 10000
Nc1ncc(-c2cnn(C3CCNCC3)c2)cc1-c1ncc(-c2cccc(Cl)c2)o1 [3-(5-(3-chlorophenyl)oxazol-2-yl)-5-(1-(piperidin-4-yl)-1H-pyrazol-4-yl)pyridin-2-amine]	< 500	< 500	< 500
Nc1ncc(-c2cnn(C3CCOCC3)c2)cc1-c1nc(-c2ccccc2)no1 [3-(3-phenyl-1,2,4-oxadiazol-5-yl)-5-(1-(tetrahydro-2H-pyran-4-yl)-1H-pyrazol-4-yl)pyridin-2-amine]	> 10000	> 10000	> 10000
CC(C)(C)OC(=O)N1CCC(n2cc(-c3cnc(N)c(-c4nnc(-c5ccc(F)cc5)o4)c3)cn2)CC1 [tert-butyl 4-(4-(6-amino-5-(5-(4-fluorophenyl)-1,3,4-oxadiazol-2-yl)pyridin-3-yl)-1H-pyrazol-1-yl)piperidine-1-carboxylate]	1000 to 10000	1000 to 10000	1000 to 10000
CC(C)CCC(=O)N1CCC(n2cc(-c3cnc(N)c(-c4nnc(-c5c(Cl)cccc5Cl)o4)c3)cn2)CC1 [1-(4-(4-(6-amino-5-(5-(2,6-dichlorophenyl)-1,3,4-oxadiazol-2-yl)pyridin-3-yl)-1H-pyrazol-1-yl)piperidin-1-yl)-4-methylpentan-1-one]	< 500	< 500	500 to 1000
CC(=O)N1CCC(n2cc(-c3cnc(N)c(-c4nnc(-c5c(Cl)cccc5Cl)o4)c3)cn2)CC1 [1-(4-(4-(6-amino-5-(5-(2,6-dichlorophenyl)-1,3,4-oxadiazol-2-yl)pyridin-3-yl)-1H-pyrazol-1-yl)piperidin-1-yl)ethanone]	< 500	< 500	< 500

Further lines, results first:

IC50 (human Axl (473-end)) [nM]	IC50 (human Mer (578-872)) [nM]	IC50 [1] [nM]	SMILES
< 500	1000 to 10000	< 500	Nc1ncc(-c2cnn(C3CCN(C(=O)c4ccccc4)CC3)c2)cc1-c1ncc(-c2ccc(Cl)cc2)o1 [(4-(4-(6-amino-5-(5-(4-chlorophenyl)oxazol-2-yl)pyridin-3-yl)-1H-pyrazol-1-yl)piperidin-1-yl)(phenyl)methanone]
< 500	< 500	< 500	Nc1ncc(-c2cnn(C3CCNCC3)c2)cc1-c1nc(-c2c(Cl)cccc2Cl)no1 [3-(3-(2,6-dichlorophenyl)-1,2,4-oxadiazol-5-yl)-5-(1-(piperidin-4-yl)-1H-pyrazol-4-yl)pyridin-2-amine]
< 500	500 to 1000	< 500	CN1CCC(n2cc(-c3cnc(N)c(-c4noc(-c5ccccc5)n4)c3)cn2)CC1 [5-(1-(1-methylpiperidin-4-yl)-1H-pyrazol-4-yl)-3-(5-phenyl-1,2,4-oxadiazol-3-yl)pyridin-2-amine]
< 500	< 500	< 500	Nc1ncc(-c2cnn(C3CCNCC3)c2)cc1-c1nnc(-c2c(Cl)ccc(F)c2Cl)o1 [3-(5-(2,6-dichloro-3-fluorophenyl)-1,3,4-oxadiazol-2-yl)-5-(1-(piperidin-4-yl)-1H-pyrazol-4-yl)pyridin-2-amine]
< 500	1000 to 10000	< 500	Nc1ncc(-c2cn[nH]c2)cc1-c1noc(-c2ccccc2)n1 [3-(5-phenyl-1,2,4-oxadiazol-3-yl)-5-(1H-pyrazol-4-yl)pyridin-2-amine]
< 500	< 500	< 500	CC(=O)N1CCC(n2cc(-c3cnc(N)c(-c4nc(-c5ccccc5)no4)c3)cn2)CC1 [1-(4-(4-(6-amino-5-(3-phenyl-1,2,4-oxadiazol-5-yl)pyridin-3-yl)-1H-pyrazol-1-yl)piperidin-1-yl)ethanone]
< 500	< 500	< 500	CN1CCC(n2cc(-c3cnc(N)c(-c4nc(-c5c(Cl)cccc5Cl)no4)c3)cn2)CC1 [3-(3-(2,6-dichlorophenyl)-1,2,4-oxadiazol-5-yl)-5-(1-(1-methylpiperidin-4-yl)-1H-pyrazol-4-yl)pyridin-2-amine]
< 500	< 500	< 500	Nc1ncc(-c2cnn(C3CCNCC3)c2)cc1-c1ncc(-c2cccnc2)o1 [5-(1-(piperidin-4-yl)-1H-pyrazol-4-yl)-3-(5-(pyridin-3-yl)oxazol-2-yl)pyridin-2-amine]
